Data: patent US8008478B2, “Process for the preparation of cefixime” (Lupin Limited, priority 2004, dated 2011)

Assay: Solubility check of a 3.3% solution of cefixime (I) in methanol
Format: physicochemical
Conditions: for Solubility: 3.3% solution of cefixime (I) in methanol
Protocol: The most preferred embodiment of the present invention is the acidification of the filtrate obtained in step (ii) to pH 2.0 to 3.0, preferably to 2.2 to 2.4 with dilute […] filtration at 50-80°, preferably at 60-70° C., most preferably at 64-68° C.

- Solubility (acidification and isolation of cefixime methyl ester (IV) at 25-30° C.): Hazy
- Solubility (acidification and isolation of cefixime methyl ester (IV) at 45-47° C.): Hazy
- Solubility (acidification and isolation of cefixime methyl ester (IV) at 65-67° C.): Clear
- Solubility profile (in words) (acidification and isolation of cefixime ester (IV) at 50-80° C., then alkaline hydrolysis): better solubility profile
- Solubility (in words) (acidification and isolation of cefixime ester (IV) at temperature below 50° C., then alkaline hydrolysis): poor solubility
Compound: C=CC1=C(C(=O)O)N2C(=O)C(NC(=O)/C(=N\OCC(=O)O)c3csc(N)n3)C2SC1 (stereo not drawn) [cefixime (I), [6R-[6α,7β(Z)]]-7-[[(2-amino-4-thiazolyl)[(carboxymethoxy)imino]acetyl]amino]-3-vinyl-3-cephem-4-carboxylic acid]
